{"source": "PubChem BioAssay AID1259407", "about": "(Chemical Carcinogenesis Research Information System (CCRIS), 2018)", "system": "CCRIS mutagenicity, Ames/micronucleus/aberration tests", "experiment": "CCRIS mutagenicity studies", "key": {"[1]": {"details": "Test System: AMES SALMONELLA TYPHIMURIUM, Strain/Indicator: TA98, Metabolic Activation: NONE, Method: STANDARD PLATE"}, "[2]": {"details": "Test System: AMES SALMONELLA TYPHIMURIUM, Strain/Indicator: TA100, Metabolic Activation: NONE, Method: STANDARD PLATE"}, "[3]": {"details": "Test System: AMES SALMONELLA TYPHIMURIUM, Strain/Indicator: TA100, Metabolic Activation: RAT, LIVER, S-9, AROCLOR 1254, Method: STANDARD PLATE"}, "[4]": {"details": "Test System: AMES SALMONELLA TYPHIMURIUM, Strain/Indicator: TA1537, Metabolic Activation: NONE, Method: STANDARD PLATE"}, "[5]": {"details": "Test System: AMES SALMONELLA TYPHIMURIUM, Strain/Indicator: TA98, Metabolic Activation: RAT, LIVER, S-9, AROCLOR 1254, Method: STANDARD PLATE"}, "[6]": {"details": "Test System: AMES SALMONELLA TYPHIMURIUM, Strain/Indicator: TA98, Metabolic Activation: NONE, Method: PREINCUBATION"}, "[7]": {"details": "Test System: AMES SALMONELLA TYPHIMURIUM, Strain/Indicator: TA100, Metabolic Activation: NONE, Method: PREINCUBATION"}, "[8]": {"details": "Test System: AMES SALMONELLA TYPHIMURIUM, Strain/Indicator: TA1535, Metabolic Activation: NONE, Method: PREINCUBATION"}}, "note": "Active and inactive are the calls of the source. How the calls were made is not given here."}
{"smiles": "N=C1CCC(=N)c2c1c(O)c1ccccc1c2O", "values": [{"measurement": "mutagenic call", "setting": "[1]", "result": "inactive; negative"}, {"measurement": "mutagenic call", "setting": "[2]", "result": "inactive; negative"}, {"measurement": "mutagenic call", "setting": "[3]", "result": "inactive; negative"}, {"measurement": "mutagenic call", "setting": "Test System: AMES SALMONELLA TYPHIMURIUM, Strain/Indicator: TA1535, Metabolic Activation: NONE, Method: STANDARD PLATE", "result": "inactive; negative"}, {"measurement": "mutagenic call", "setting": "Test System: AMES SALMONELLA TYPHIMURIUM, Strain/Indicator: TA1535, Metabolic Activation: RAT, LIVER, S-9, AROCLOR 1254, Method: STANDARD PLATE", "result": "inactive; negative"}, {"measurement": "mutagenic call", "setting": "[4]", "result": "active; positive"}, {"measurement": "mutagenic call", "setting": "Test System: AMES SALMONELLA TYPHIMURIUM, Strain/Indicator: TA1537, Metabolic Activation: RAT, LIVER, S-9, AROCLOR 1254, Method: STANDARD PLATE", "result": "active; positive"}, {"measurement": "mutagenic call", "setting": "Test System: AMES SALMONELLA TYPHIMURIUM, Strain/Indicator: TA1538, Metabolic Activation: NONE, Method: STANDARD PLATE", "result": "inactive; negative"}, {"measurement": "mutagenic call", "setting": "Test System: AMES SALMONELLA TYPHIMURIUM, Strain/Indicator: TA1538, Metabolic Activation: RAT, LIVER, S-9, AROCLOR 1254, Method: STANDARD PLATE", "result": "inactive; negative"}]}
{"smiles": "O[C@H]1[C@H]2O[C@H]2c2c(ccc3ccc4ccccc4c23)[C@@H]1O", "values": [{"measurement": "mutagenic call", "setting": "Test System: E. COLI, Strain/Indicator: CL101P, Metabolic Activation: NONE, Method: PREINCUBATION", "result": "active; positive"}, {"measurement": "mutagenic call", "setting": "Test System: E. COLI, Strain/Indicator: CL102P, Metabolic Activation: NONE, Method: PREINCUBATION", "result": "active; positive"}, {"measurement": "mutagenic call", "setting": "Test System: E. COLI, Strain/Indicator: CL103P, Metabolic Activation: NONE, Method: PREINCUBATION", "result": "active; positive"}, {"measurement": "mutagenic call", "setting": "Test System: E. COLI, Strain/Indicator: CL104P, Metabolic Activation: NONE, Method: PREINCUBATION", "result": "active; positive"}, {"measurement": "mutagenic call", "setting": "Test System: E. COLI, Strain/Indicator: CL105P, Metabolic Activation: NONE, Method: PREINCUBATION", "result": "active; positive"}, {"measurement": "mutagenic call", "setting": "Test System: E. COLI, Strain/Indicator: CL106P, Metabolic Activation: NONE, Method: PREINCUBATION", "result": "active; positive"}]}
{"smiles": "CC(C)(C)NCC(O)COc1cccc2c1CCCC2=O", "note": "(stereo unspecified)", "values": [{"measurement": "mutagenic call", "setting": "[1]", "result": "inactive; negative"}, {"measurement": "mutagenic call", "setting": "[5]", "result": "inactive; negative"}, {"measurement": "mutagenic call", "setting": "[2]", "result": "inactive; negative"}, {"measurement": "mutagenic call", "setting": "[3]", "result": "inactive; negative"}]}
{"smiles": "CN(C)CCNC(=O)c1ccc2ccc3cccnc3c2n1", "values": [{"measurement": "mutagenic call", "setting": "[4]", "result": "active; positive"}]}
{"smiles": "COc1ccc2c(cc3c4c(cc5c(c42)OCO5)CCN3C)c1OC", "values": [{"measurement": "mutagenic call", "setting": "Test System: AMES SALMONELLA TYPHIMURIUM, Strain/Indicator: TA98, Metabolic Activation: RAT, LIVER, S-9, PHENOBARBITAL AND BETA-NAPHTHOFLAVONE, Method: PREINCUBATION", "result": "active; positive"}, {"measurement": "mutagenic call", "setting": "Test System: AMES SALMONELLA TYPHIMURIUM, Strain/Indicator: TA100, Metabolic Activation: RAT, LIVER, S-9, PHENOBARBITAL AND BETA-NAPHTHOFLAVONE, Method: PREINCUBATION", "result": "active; positive"}]}
{"smiles": "Cc1ccc(NO)cc1[N+](=O)[O-]", "values": [{"measurement": "mutagenic call", "setting": "Test System: AMES SALMONELLA TYPHIMURIUM, Strain/Indicator: TA98, Metabolic Activation: NONE, Method: SUSPENSION/PLATE", "result": "inactive; negative"}, {"measurement": "mutagenic call", "setting": "Test System: AMES SALMONELLA TYPHIMURIUM, Strain/Indicator: TA98, Metabolic Activation: RAT, LIVER, S-9, PHENOBARBITAL AND 5,6-BENZOFLAVONE, Method: SUSPENSION/PLATE", "result": "inactive; negative"}, {"measurement": "mutagenic call", "setting": "Test System: AMES SALMONELLA TYPHIMURIUM, Strain/Indicator: TA100, Metabolic Activation: NONE, Method: SUSPENSION/PLATE", "result": "inactive; negative"}, {"measurement": "mutagenic call", "setting": "Test System: AMES SALMONELLA TYPHIMURIUM, Strain/Indicator: TA100, Metabolic Activation: RAT, LIVER, S-9, PHENOBARBITAL AND 5,6-BENZOFLAVONE, Method: SUSPENSION/PLATE", "result": "inactive; negative"}]}
{"smiles": "O=C1NC(=O)c2cc([N+](=O)[O-])ccc21", "values": [{"measurement": "mutagenic call", "setting": "Test System: AMES SALMONELLA TYPHIMURIUM, Strain/Indicator: TA97, Metabolic Activation: HAMSTER, LIVER, S-9, AROCLOR 1254 (10%), Method: PREINCUBATION", "result": "inactive; negative"}, {"measurement": "mutagenic call", "setting": "Test System: AMES SALMONELLA TYPHIMURIUM, Strain/Indicator: TA97, Metabolic Activation: NONE, Method: PREINCUBATION", "result": "active; positive"}, {"measurement": "mutagenic call", "setting": "Test System: AMES SALMONELLA TYPHIMURIUM, Strain/Indicator: TA97, Metabolic Activation: RAT, LIVER, S-9, AROCLOR 1254 (10%), Method: PREINCUBATION", "result": "inactive; negative"}, {"measurement": "mutagenic call", "setting": "Test System: AMES SALMONELLA TYPHIMURIUM, Strain/Indicator: TA98, Metabolic Activation: HAMSTER, LIVER, S-9, AROCLOR 1254 (10%), Method: PREINCUBATION", "result": "active; positive"}, {"measurement": "mutagenic call", "setting": "[6]", "result": "active; positive"}, {"measurement": "mutagenic call", "setting": "Test System: AMES SALMONELLA TYPHIMURIUM, Strain/Indicator: TA98, Metabolic Activation: RAT, LIVER, S-9, AROCLOR 1254 (10%), Method: PREINCUBATION", "result": "active; positive"}, {"measurement": "mutagenic call", "setting": "Test System: AMES SALMONELLA TYPHIMURIUM, Strain/Indicator: TA100, Metabolic Activation: HAMSTER, LIVER, S-9, AROCLOR 1254 (10%), Method: PREINCUBATION", "result": "inactive; negative"}, {"measurement": "mutagenic call", "setting": "[7]", "result": "inactive; negative"}, {"measurement": "mutagenic call", "setting": "Test System: AMES SALMONELLA TYPHIMURIUM, Strain/Indicator: TA100, Metabolic Activation: RAT, LIVER, S-9, AROCLOR 1254 (10%), Method: PREINCUBATION", "result": "inactive; negative"}, {"measurement": "mutagenic call", "setting": "Test System: AMES SALMONELLA TYPHIMURIUM, Strain/Indicator: TA1535, Metabolic Activation: HAMSTER, LIVER, S-9, AROCLOR 1254 (10%), Method: PREINCUBATION", "result": "inactive; negative"}, {"measurement": "mutagenic call", "setting": "[8]", "result": "inactive; negative"}, {"measurement": "mutagenic call", "setting": "Test System: AMES SALMONELLA TYPHIMURIUM, Strain/Indicator: TA1535, Metabolic Activation: RAT, LIVER, S-9, AROCLOR 1254 (10%), Method: PREINCUBATION", "result": "inactive; negative"}, {"measurement": "mutagenic call", "setting": "Test System: AMES SALMONELLA TYPHIMURIUM, Strain/Indicator: TA1537, Metabolic Activation: HAMSTER, LIVER, S-9, AROCLOR 1254 (10%), Method: PREINCUBATION", "result": "active; positive"}, {"measurement": "mutagenic call", "setting": "Test System: AMES SALMONELLA TYPHIMURIUM, Strain/Indicator: TA1537, Metabolic Activation: NONE, Method: PREINCUBATION", "result": "active; positive"}, {"measurement": "mutagenic call", "setting": "Test System: AMES SALMONELLA TYPHIMURIUM, Strain/Indicator: TA1537, Metabolic Activation: RAT, LIVER, S-9, AROCLOR 1254 (10%), Method: PREINCUBATION", "result": "active; positive"}]}
{"smiles": "COCCOCCOP1(OCCOCCOC)=NP(OCCOCCOC)(OCCOCCOC)=NP(OCCOCCOC)(OCCOCCOC)=N1", "values": [{"measurement": "mutagenic call", "setting": "[1]", "result": "inactive; negative"}, {"measurement": "mutagenic call", "setting": "[5]", "result": "inactive; negative"}, {"measurement": "mutagenic call", "setting": "[2]", "result": "inactive; negative"}, {"measurement": "mutagenic call", "setting": "[3]", "result": "inactive; negative"}]}
{"smiles": "ClCC(Cl)COCC(Cl)CCl", "note": "(stereo unspecified)", "values": [{"measurement": "mutagenic call", "setting": "[6]", "result": "inactive; negative"}, {"measurement": "mutagenic call", "setting": "Test System: AMES SALMONELLA TYPHIMURIUM, Strain/Indicator: TA98, Metabolic Activation: RAT LIVER S-9, AROCLOR 1254 (10%), Method: PREINCUBATION", "result": "active; positive"}, {"measurement": "mutagenic call", "setting": "[7]", "result": "inactive; negative"}, {"measurement": "mutagenic call", "setting": "Test System: AMES SALMONELLA TYPHIMURIUM, Strain/Indicator: TA100, Metabolic Activation: RAT LIVER S-9, AROCLOR 1254 (10%), Method: PREINCUBATION", "result": "active; positive"}, {"measurement": "mutagenic call", "setting": "[8]", "result": "inactive; negative"}, {"measurement": "mutagenic call", "setting": "Test System: AMES SALMONELLA TYPHIMURIUM, Strain/Indicator: TA1535, Metabolic Activation: RAT LIVER S-9, AROCLOR 1254 (10%), Method: PREINCUBATION", "result": "active; positive"}, {"measurement": "mutagenic call", "setting": "Test System: AMES SALMONELLA TYPHIMURIUM, Strain/Indicator: TA1538, Metabolic Activation: NONE, Method: PREINCUBATION", "result": "inactive; negative"}, {"measurement": "mutagenic call", "setting": "Test System: AMES SALMONELLA TYPHIMURIUM, Strain/Indicator: TA1538, Metabolic Activation: RAT LIVER S-9, AROCLOR 1254 (10%), Method: PREINCUBATION", "result": "inactive; negative"}]}
{"smiles": "Nc1ccc(-c2ccc([N+](=O)[O-])cc2N)c([N+](=O)[O-])c1", "values": [{"measurement": "mutagenic call", "setting": "[6]", "result": "active; positive"}, {"measurement": "mutagenic call", "setting": "Test System: AMES SALMONELLA TYPHIMURIUM, Strain/Indicator: TA98, Metabolic Activation: RAT, LIVER, S-9, KANECHLOR 500, Method: PREINCUBATION", "result": "active; positive"}]}
{"smiles": "CCn1c(N)nc2c3cccnc3ccc21", "values": [{"measurement": "mutagenic call", "setting": "Test System: AMES SALMONELLA TYPHIMURIUM, Strain/Indicator: TA98, Metabolic Activation: RAT, LIVER, S-9, AROCLOR 1254, Method: PREINCUBATION", "result": "active; positive"}]}
